The source made the active and inactive calls. No rule for the calls is given here.
Tested on: rodent carcinogenicity bioassays, tumor incidence
Assay: CCRIS carcinogenicity studies
Outline: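 Archive of carcinogenicity, mutagenicity, tumor promotion and tumor inhibition results drawn from journals, NCI reports and other sources, expert-reviewed; covers 1985-2011 and is no longer updated.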

In the case of `Cn1c(N)nc2c3ccc(=O)[nH]c3ccc21`, the carcinogen call (Species: MOUSE, Strain/Sex: CD-1/FEMALE, Route: INTRAPERITONEAL, ORAL, Dose: 0, 5 µL OF A 21.7 MG/ML SOLUTION IN DMSO ON DAYS 1, 3, 5, 7, 10, 13, 17, 21, 24 AND 28 OF LIFE THEN 2/WK TO WK 10 FOLLOW, Tumor Site: Type of Lesion: LIVER: CARCINOMA) is reported as “active; positive”, the carcinogen call (Species: MOUSE, Strain/Sex: CD-1/MALE, Route: INTRAPERITONEAL, ORAL, Dose: 0, 5 µL OF A 21.7 MG/ML SOLUTION IN DMSO ON DAYS 1, 3, 5, 7, 10, 13, 17, 21, 24 AND 28 OF LIFE THEN 2/WK TO WK 10 FOLLOW) is reported as “inactive; negative” and the carcinogen call (Species: RAT, Strain/Sex: F344/MALE, Route: INTRARECTAL, Dose: 0, 54.8 MG/KG IN 1.7 ML/KG DMSO INFUSED 3/WK FOR 2 MO THEN 2/WK FOR DURATION OF STUDY (STUDY DURATION: 21 MO)) is reported as “inactive; negative”.

In the case of `Brc1c(Br)c(Br)c(Oc2c(Br)c(Br)c(Br)c(Br)c2Br)c(Br)c1Br`, the carcinogen call (Species: MOUSE, Strain/Sex: B6C3F1/FEMALE, Route: ORAL, Dose: 0, 25000, 50000 PPM IN DIET FOR 103 WK (STUDY DURATION: 103 WK), Dose: 0, 25000, 50000 PPM IN DIET FOR 103 WK (STUDY DURATION: 103 WK)) is reported as “inactive; negative”, the carcinogen call (Species: MOUSE, Strain/Sex: B6C3F1/MALE, Route: ORAL, Dose: 0, 25000, 50000 PPM IN DIET FOR 103 WK (STUDY DURATION: 103 WK), Dose: 0, 25000, 50000 PPM IN DIET FOR 103 WK (STUDY DURATION: 103 WK), Tumor Site: Type of Lesion: LIVER: HEPATOCELLULAR ADENOMA OR CARCINOMA, THYROID GLAND: FOLLICULAR CELL ADENOMA OR CARCINOMA) is reported as “equivocal” and the carcinogen call (Species: RAT, Strain/Sex: F344/FEMALE, Route: ORAL, Dose: 0, 25000, 50000 PPM IN DIET FOR 103 WK (STUDY DURATION: 103 WK), Dose: 0, 25000, 50000 PPM IN DIET FOR 103 WK (STUDY DURATION: 103 WK), Tumor Site: Type of Lesion: LIVER: NEOPLASTIC NODULE, NEOPLASTIC NODULE OR HEPATOCELLULAR CARCINOMA) is reported as “active; positive”. The carcinogen call (Species: RAT, Strain/Sex: F344/MALE, Route: ORAL, Dose: 0, 25000, 50000 PPM IN DIET FOR 103 WK (STUDY DURATION: 103 WK), Dose: 0, 25000, 50000 PPM IN DIET FOR 103 WK (STUDY DURATION: 103 WK), Tumor Site: Type of Lesion: LIVER: NEOPLASTIC NODULE, NEOPLASTIC NODULE OR HEPATOCELLULAR CARCINOMA) was “active; positive”.

With `c1ccc2c(c1)ccc1ccccc12` the carcinogen call (Species: RAT, Strain/Sex: OSBORNE-MENDEL/FEMALE, Route: INTRAPULMONARY IMPLANT, Dose: 0, 1, 3, 10 MG IN BEESWAX AND TRIOCTANOIN IMPLANTED IN LUNG (STUDY DURATION: 141 WK), Dose: 0, 1, 3, 10 MG IN BEESWAX AND TRIOCTANOIN IMPLANTED IN LUNG (STUDY DURATION: 141 WK)) was “inactive; negative”.

With `Cc1cc(O)c2c(c1O)C(=O)C13C(=C2O)C(=O)C2C(O)C1C1C(O)C3C(=O)C3=C(O)c4c(O)cc(C)c(O)c4C(=O)C321` (stereo unspecified) the carcinogen call (Species: MOUSE, Route: ORAL, Tumor Site: Type of Lesion: LIVER) was “active; positive”.

`CN=C(NCc1cnc(Cl)s1)N[N+](=O)[O-]` was tested, and the carcinogen call (Species: Rat, Strain/Sex: ???/Female (60/group), Route: Oral, Dose: 0, 150, 500, 1,500, 3,000 ppm in diet for 2 yr, Dose: 0, 150, 500, 1,500, 3,000 ppm in diet for 2 yr) was “inactive; negative (study details not given in source; purity 95.2%)” and the carcinogen call (Species: Rat, Strain/Sex: ???/Male (60/group), Route: Oral, Dose: 0, 150, 500, 1,500, 3,000 ppm in diet for 2 yr, Dose: 0, 150, 500, 1,500, 3,000 ppm in diet for 2 yr) was “inactive; negative (study details not given in source; purity 95.2%)”.
